The source of these data is patent publication US5302582A, “Enkastins: new glycopeptides which act to inhibit enkephlinase, processes for their preparation, and their use as pharmaceutical products” (Hoechst Aktiengesellschaft, priority 1987, dated 1994).

The experiment concerns the target T1, enkephalinase preparation solubilized from rat kidneys (Rattus norvegicus, UniProt P07861).
T1 construct: enkephalinase preparation solubilized from rat kidneys; from tissue; host or cells: rat kidney
T1 sequence (P07861 1-750): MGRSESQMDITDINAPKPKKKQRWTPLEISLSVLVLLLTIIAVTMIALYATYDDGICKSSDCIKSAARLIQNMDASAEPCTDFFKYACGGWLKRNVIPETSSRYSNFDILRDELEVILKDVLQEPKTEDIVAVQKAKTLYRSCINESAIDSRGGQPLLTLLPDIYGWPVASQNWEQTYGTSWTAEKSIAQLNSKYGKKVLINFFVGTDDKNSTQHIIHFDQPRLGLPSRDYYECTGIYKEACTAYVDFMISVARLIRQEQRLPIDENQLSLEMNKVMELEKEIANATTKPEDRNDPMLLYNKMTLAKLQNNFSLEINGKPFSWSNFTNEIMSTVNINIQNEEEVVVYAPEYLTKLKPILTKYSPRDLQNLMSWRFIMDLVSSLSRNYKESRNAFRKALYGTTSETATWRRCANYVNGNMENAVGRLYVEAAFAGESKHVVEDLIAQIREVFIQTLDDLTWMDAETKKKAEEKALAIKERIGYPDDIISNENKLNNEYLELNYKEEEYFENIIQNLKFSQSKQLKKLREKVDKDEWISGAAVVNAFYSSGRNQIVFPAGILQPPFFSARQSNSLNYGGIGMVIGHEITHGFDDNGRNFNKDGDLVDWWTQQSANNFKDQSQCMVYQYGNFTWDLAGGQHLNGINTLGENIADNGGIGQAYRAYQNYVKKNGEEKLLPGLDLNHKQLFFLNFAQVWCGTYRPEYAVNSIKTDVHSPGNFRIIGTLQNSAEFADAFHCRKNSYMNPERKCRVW
The experiment is described as follows: Enkephalinase assay (enkephalinase inhibition). In kind it is biochemical. Conditions: for IC50: inhibitor preincubated with the enzyme at room temperature for 60 minutes before addition of the substrate, read-out: IC50 (50% inhibition of enkephalinase); for enkephalinase-inhibitory activity of HPLC peaks: freeze-dried RP-18 HPLC fractions of crude enkastin complex from Streptomyces albus ATCC 21838. As to the method: The enzyme used was an enkephalinase preparation solubilized from rat kidneys by methods known per se [Mumford, R. A. et al. 1982, Biochem. Biophys. Res. Comm. 109, 1303-1309]. The 50% inhibition of enkephalinase by the compounds according to the invention, i.e. the IC50 value, was determined in a known manner using a concentration series, and the inhibitors, to which the invention relates, having been preincubated with the enzyme at room temperature for 60 minutes before the enzymatic reaction was started by addition of the substrate. Suitable checks for the non-inhibited reaction were carried out in the absence of an inhibitor.

`CC(C)[C@@H](NCC(=O)[C@@H](O)[C@H](O)[C@H](O)CO)C(=O)N[C@@H](CC(=O)O)C(=O)O` [compound 1, N-(1-deoxyfructos-1-yl)-D-Val-Asp]: the IC50 (as a rule, the concentration at which inhibition is half-maximal) turned out to be 1.3 nM.
`CC[C@@H](C)[C@@H](NCC(=O)[C@@H](O)[C@H](O)[C@H](O)CO)C(=O)N[C@@H](CC(=O)O)C(=O)O` [compound 2, N-(1-deoxyfructos-1-yl)-D-Ile-Asp]: the IC50 is 1.8 nM.
Take `CC(C)[C@H](NCC(=O)[C@@H](O)[C@H](O)[C@H](O)CO)C(=O)N[C@@H](CC(=O)O)C(=O)O` [compound 4, N-(1-deoxyfructos-1-yl)-Val-Asp]: the “enkephalinase-inhibitory activity of HPLC peaks” value is recorded as “enkephalinase-inhibitory activity” and the IC50 was found to be 6.3 nM.
With `O=C(O)CC[C@H](NC(=O)[C@H](Cc1ccccc1)NCC(=O)[C@@H](O)[C@H](O)[C@H](O)CO)C(=O)O` [compound 5, N-(1-deoxyfructos-1-yl)-Phe-Glu], the IC50 was found to be 56 nM.
In the case of `CC(C)[C@H](NCC(=O)[C@@H](O)[C@H](O)[C@H](O)CO)C(=O)N[C@@H](CCC(=O)O)C(=O)O` [compound 6, N-(1-deoxyfructos-1-yl)-Val-Glu], the “enkephalinase-inhibitory activity of HPLC peaks” value is given as “enkephalinase-inhibitory activity” and the concentration for half-maximal inhibition (IC50) came to 34 nM.
Consider `CC[C@H](C)[C@H](NCC(=O)[C@@H](O)[C@H](O)[C@H](O)CO)C(=O)N[C@@H](CC(=O)O)C(=O)O` [compound 7, N-(1-deoxyfructos-1-yl)-Ile-Asp], for which the IC50 was 34 nM.
In the case of `CC[C@H](C)[C@H](NCC(=O)[C@@H](O)[C@H](O)[C@H](O)CO)C(=O)N[C@@H](CCC(=O)O)C(=O)O` [compound 8, N-(1-deoxyfructos-1-yl)-Ile-Glu], the “enkephalinase-inhibitory activity of HPLC peaks” value is on record as “enkephalinase-inhibitory activity” and the IC50 came to 56 nM.
In the case of `CC[C@H](C)[C@H](NCC(=O)[C@@H](O)[C@H](O)[C@H](O)CO)C(=O)N[C@@H](CC(=O)OC(C)(C)C)C(=O)O` [compound 9, N-(1-deoxyfructos-1-yl)-Ile-Asp(OtBu)], the IC50 amounted to 70 nM.
On the same count and under the same terms, the value for `CC[C@H](C)[C@H](NCC(=O)[C@@H](O)[C@H](O)[C@H](O)CO)C(=O)N[C@@H](CO)C(=O)O` [compound 11, N-(1-deoxyfructos-1-yl)-Ile-Ser] was 210 nM; that for `CC(C)[C@@H](NCC(=O)[C@@H](O)[C@H](O)[C@H](O)CO)C(=O)O` [compound 12, N-(1-deoxyfructos-1-yl)-D-Val] was 230 nM.
Same read-out and setting: with `CC(C)[C@H](NCC(=O)[C@@H](O)[C@@H](O)[C@H](O)CO)C(=O)N[C@@H](CC(=O)O)C(=O)O` [compound 13, N-(1-deoxytagatos-1-yl)-Val-Asp] the figure was 320 nM; with `CC[C@@H](C)[C@@H](NCC(=O)[C@@H](O)[C@H](O)[C@H](O)CO)C(=O)O` [compound 14, N-(1-deoxyfructos-1-yl)-D-Ile], 340 nM.
Regarding “N-(1-deoxyfructos-1-yl)-Hhp-Asp [compound 10]”, the concentration for half-maximal inhibition (IC50) is 75 nM.
For the compound “N-(1-deoxyfructos-1-yl)-Ile-Asp [compound 3]”, the “enkephalinase-inhibitory activity of HPLC peaks” value was “enkephalinase-inhibitory activity” and the IC50 came out at 1.8 nM.
